Data reported in ChEMBL document CHEMBL5385856, “Novel 1,4,5,6-tetrahydrocyclopenta[d]imidazole-5-carboxamide-based JNK3 inhibitors: Design, synthesis, molecular docking, and therapeutic potential in neurodegenerative diseases” (Eur J Med Chem, 2023).
The source made the active and inactive calls. The rule behind the calls is not given here.

How the values were obtained:
[1] = molecular target: T1, Mitogen-activated protein kinase 8 (Homo sapiens, UniProt P45983); assay: Inhibition of JNK1 (unknown origin) incubated for 20 mins in presence of 33P-ATP
T1 sequence (P45983 whole entry): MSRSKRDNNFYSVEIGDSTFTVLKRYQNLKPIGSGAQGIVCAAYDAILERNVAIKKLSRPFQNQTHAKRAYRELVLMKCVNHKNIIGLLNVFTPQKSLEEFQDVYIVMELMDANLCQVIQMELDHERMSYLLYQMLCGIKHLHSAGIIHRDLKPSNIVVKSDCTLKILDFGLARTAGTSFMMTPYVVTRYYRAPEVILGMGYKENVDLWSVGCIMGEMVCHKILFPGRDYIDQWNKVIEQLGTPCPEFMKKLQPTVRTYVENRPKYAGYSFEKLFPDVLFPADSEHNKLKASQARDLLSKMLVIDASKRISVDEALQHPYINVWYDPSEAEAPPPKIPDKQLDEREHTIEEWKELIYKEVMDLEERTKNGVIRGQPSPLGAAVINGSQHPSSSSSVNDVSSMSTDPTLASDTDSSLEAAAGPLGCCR

[2] = molecular target: Glycogen synthase kinase-3 beta (Homo sapiens, UniProt P49841); assay: Inhibition of GSK3beta (unknown origin) incubated for 20 mins in presence of 33P-ATP
Chain of Glycogen synthase kinase-3 beta (P49841 whole entry): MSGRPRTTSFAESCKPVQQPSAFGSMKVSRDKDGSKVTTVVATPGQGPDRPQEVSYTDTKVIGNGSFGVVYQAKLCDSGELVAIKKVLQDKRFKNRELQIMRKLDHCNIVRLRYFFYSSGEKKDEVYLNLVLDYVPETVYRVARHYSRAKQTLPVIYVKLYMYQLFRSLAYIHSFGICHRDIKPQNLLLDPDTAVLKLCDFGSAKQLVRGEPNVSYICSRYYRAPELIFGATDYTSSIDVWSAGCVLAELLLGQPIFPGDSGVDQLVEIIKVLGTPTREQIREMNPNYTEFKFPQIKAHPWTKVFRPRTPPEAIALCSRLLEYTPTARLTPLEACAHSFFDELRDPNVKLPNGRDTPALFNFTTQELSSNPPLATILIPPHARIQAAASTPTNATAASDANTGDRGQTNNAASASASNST

[3] = molecular target: T2, Mitogen-activated protein kinase 10 (Homo sapiens, UniProt P53779); assay: Inhibition of JNK3 (unknown origin) using ATF2 as substrate incubated for 40 mins in presence of [gamma33P]ATP by scintillation counting analysis
T2 sequence (P53779 whole entry): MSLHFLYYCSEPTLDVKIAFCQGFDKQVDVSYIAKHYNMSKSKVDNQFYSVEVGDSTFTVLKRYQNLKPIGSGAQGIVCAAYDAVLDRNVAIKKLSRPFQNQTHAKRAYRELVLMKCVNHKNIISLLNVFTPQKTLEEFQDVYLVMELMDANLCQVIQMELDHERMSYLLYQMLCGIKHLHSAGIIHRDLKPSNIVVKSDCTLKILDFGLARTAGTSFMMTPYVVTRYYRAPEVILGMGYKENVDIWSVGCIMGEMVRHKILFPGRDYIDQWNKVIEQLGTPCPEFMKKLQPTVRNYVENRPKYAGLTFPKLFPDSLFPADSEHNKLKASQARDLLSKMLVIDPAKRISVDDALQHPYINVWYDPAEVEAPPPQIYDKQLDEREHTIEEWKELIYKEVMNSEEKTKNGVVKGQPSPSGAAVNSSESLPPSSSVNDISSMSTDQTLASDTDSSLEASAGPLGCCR

[4] = molecular target: T3, Mitogen-activated protein kinase 9 (Homo sapiens, UniProt P45984); assay: Inhibition of JNK2 (unknown origin) incubated for 20 mins in presence of 33P-ATP
Target sequence in this assay (P45984 whole entry): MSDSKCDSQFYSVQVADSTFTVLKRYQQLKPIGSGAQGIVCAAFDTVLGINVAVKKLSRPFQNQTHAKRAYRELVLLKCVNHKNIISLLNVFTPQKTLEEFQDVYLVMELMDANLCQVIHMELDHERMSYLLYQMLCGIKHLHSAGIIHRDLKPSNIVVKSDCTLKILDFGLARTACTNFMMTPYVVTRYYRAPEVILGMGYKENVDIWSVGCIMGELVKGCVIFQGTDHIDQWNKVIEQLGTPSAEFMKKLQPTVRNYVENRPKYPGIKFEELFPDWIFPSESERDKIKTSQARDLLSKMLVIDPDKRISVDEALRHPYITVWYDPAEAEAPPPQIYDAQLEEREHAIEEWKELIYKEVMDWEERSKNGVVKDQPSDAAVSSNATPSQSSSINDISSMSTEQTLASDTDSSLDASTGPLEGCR

[5] = molecular target: T4, Mitogen-activated protein kinase 14 (Homo sapiens, UniProt Q16539); assay: Inhibition of p38alpha (unknown origin) incubated for 20 mins in presence of 33P-ATP
T4 sequence (Q16539 whole entry): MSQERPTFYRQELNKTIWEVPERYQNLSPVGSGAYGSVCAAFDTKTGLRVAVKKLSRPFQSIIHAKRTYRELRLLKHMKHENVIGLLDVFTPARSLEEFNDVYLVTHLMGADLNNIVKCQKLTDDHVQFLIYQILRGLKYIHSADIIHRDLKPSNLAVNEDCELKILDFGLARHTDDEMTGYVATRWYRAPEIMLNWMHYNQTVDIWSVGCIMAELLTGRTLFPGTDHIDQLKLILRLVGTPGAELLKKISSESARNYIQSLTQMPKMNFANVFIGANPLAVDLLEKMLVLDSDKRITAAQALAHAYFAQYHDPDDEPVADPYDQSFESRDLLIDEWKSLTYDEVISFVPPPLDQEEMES

[6] = molecular target: T3, Mitogen-activated protein kinase 9; assay: Inhibition of JNK2 (unknown origin) at 1 uM relative to control
Target sequence in this assay (P45984 whole entry, looked up): as the sequence (P45984 whole entry) above

[7] = molecular target: T2, Mitogen-activated protein kinase 10; assay: Inhibition of JNK3 (unknown origin) at 1 uM relative to control
[8] = molecular target: T4, Mitogen-activated protein kinase 14; assay: Inhibition of p38alpha (unknown origin) at 1 uM relative to control
[9] = molecular target: T1, Mitogen-activated protein kinase 8; assay: Inhibition of JNK1 (unknown origin) at 1 uM relative to control
Cortical neurone = assay: cells; settings: Rattus norvegicus, 120 h, read-out: Activity
[10] = Selectivity ratio of IC50 for inhibition of JNK1 (unknown origin) to IC50 for inhibition of JNK3 (unknown origin)
[11] = molecular target: Mitogen-activated protein kinase 10 (Rattus norvegicus) (UniProt P49187); assay: Inhibition of JNK3 in primary rat cortex neuron cells assessed as reduction in Abeta1-42 induced APP phosphorylation by Western blotting analysis; assay type: cell-based; settings: Primary cortical neuron
Chain of Mitogen-activated protein kinase 10 (Rattus norvegicus) (P49187 whole entry): as the sequence (P53779 whole entry) above, with Q27H, Y32S, I33V, A34V counted along it

[12] = molecular target: Mitogen-activated protein kinase 10 (Rattus norvegicus) (UniProt P49187); assay: Inhibition of JNK3 in primary rat cortex neuron cells assessed as reduction in Abeta1-42 induced c-Jun phosphorylation by Western blotting analysis; assay type: cell-based; settings: Primary cortical neuron

**Q.** For `CCOC(=O)C1Cc2nc(-c3ccc4ccccc4c3)n(-c3ccnc(N[C@@H]4CCCN(C(=O)C5CC5)C4)n3)c2C1` (stereo not given in full), which IC50 [1] is on record?
**A.** 56.1 nM

**Q.** What about the IC50 [2] of the same compound?
**A.** 1250 nM

**Q.** What about the IC50 [3] of the same compound?
**A.** 0.779 nM

**Q.** And the IC50 [4]?
**A.** 11.9 nM

**Q.** And the IC50 [5]?
**A.** 84.7 nM

**Q.** Which IC50 [1] does the source give for `CCOC(=O)C1Cc2nc(-c3ccc(Cl)c(Cl)c3)n(-c3ccnc(N[C@@H]4CCCN(C(=O)C5CC5)C4)n3)c2C1` (stereo not given in full) here?
**A.** 82.8 nM

**Q.** And the IC50 [2]?
**A.** 195 nM

**Q.** And the IC50 [3]?
**A.** 0.607 nM

**Q.** What about the IC50 [4] of the same compound?
**A.** 8.56 nM

**Q.** And the IC50 [5]?
**A.** 53.2 nM

**Q.** For `CNC(=O)C1Cc2nc(-c3ccc(Cl)c(Cl)c3)n(-c3ccnc(N[C@@H]4CCCN(C(=O)C5CC5)C4)n3)c2C1` (stereo not given in full), which IC50 [3] is on record?
**A.** 4.83 nM

**Q.** For `CCOC(=O)C1Cc2nc(-c3ccc4c(c3)OCO4)n(-c3ccnc(N[C@@H]4CCCN(C(=O)C5CC5)C4)n3)c2C1` (stereo not given in full), which IC50 [3] is on record?
**A.** 1.2 nM

**Q.** With `CNC(=O)C1Cc2nc(-c3ccc4c(c3)OCO4)n(-c3ccnc(N[C@@H]4CCN(C(=O)C5CC5)C4)n3)c2C1` (stereo not given in full) as the compound, how does the IC50 [3] read?
**A.** 93.9 nM

**Q.** With `NC(=O)C1Cc2nc(-c3ccc(Cl)c(Cl)c3)n(-c3ccnc(N[C@@H]4CCCN(C(=O)C5CC5)C4)n3)c2C1` (stereo not given in full) as the compound, how does the IC50 [1] read?
**A.** 160 nM

**Q.** And the IC50 [2]?
**A.** 470 nM

**Q.** What about the inhibition [6] of the same compound?
**A.** 80%

**Q.** What about the IC50 [3] of the same compound?
**A.** 0.73 nM

**Q.** And the inhibition [7]?
**A.** 100%

**Q.** What about the IC50 [4] of the same compound?
**A.** 16.6 nM

**Q.** And the inhibition [8]?
**A.** 80%

**Q.** What about the inhibition [9] of the same compound?
**A.** 80%

**Q.** And the IC50 [5]?
**A.** 70.6 nM

**Q.** What does the source list for `CCOC(=O)C1Cc2nc(-c3ccc(Cl)c(Cl)c3)n(-c3ccnc(N[C@H]4CCCN(C(=O)C5CC5)C4)n3)c2C1` (stereo not given in full)?
**A.** IC50 [1]: 158 nM; viability at 10 µM (Cortical neurone): 63.2%; IC50 [2]: 4860 nM; IC50 [3]: 1.11 nM; IC50 [4]: 14.8 nM; IC50 [5]: 285 nM

**Q.** With `CCOC(=O)C1Cc2nc(-c3ccc4c(c3)CCO4)n(-c3ccnc(N[C@@H]4CCN(C(=O)C5CC5)C4)n3)c2C1` (stereo not given in full) as the compound, how does the IC50 [3] read?
**A.** 21.5 nM

**Q.** With `NC(=O)C1Cc2nc(-c3ccc(F)c(C(F)(F)F)c3)n(-c3ccnc(N[C@@H]4CCCN(C(=O)C5CC5)C4)n3)c2C1` (stereo not given in full) as the compound, how does the IC50 [3] read?
**A.** 104 nM

**Q.** For `CCOC(=O)C1Cc2nc(-c3ccc4ccccc4c3)n(-c3ccnc(N[C@@H]4CCN(C(=O)C5CC5)C4)n3)c2C1` (stereo not given in full), which IC50 [3] is on record?
**A.** 6.82 nM

**Q.** Which IC50 [3] does the source give for `CNC(=O)C1Cc2nc(-c3ccc(F)c(C(F)(F)F)c3)n(-c3ccnc(N[C@H]4CCN(C(=O)C5CC5)C4)n3)c2C1` (stereo not given in full) here?
**A.** 601 nM

**Q.** For `NC(=O)C1Cc2nc(-c3ccc4ccccc4c3)n(-c3ccnc(N[C@H]4CCN(C(=O)C5CC5)C4)n3)c2C1` (stereo not given in full), which IC50 [3] is on record?
**A.** 14.8 nM

**Q.** Which results are given for `CNC(=O)C1Cc2nc(-c3ccc(Cl)c(Cl)c3)n(-c3ccnc(N[C@H]4CCCN(C(=O)C5CC5)C4)n3)c2C1` (stereo not given in full)?
**A.** IC50 [1]: 86.5 nM; IC50 [2]: > 10000 nM; Ratio IC50 [10]: 100; IC50 [3]: 1.2 nM; IC50 [4]: 15.4 nM; IC50 [5]: 532 nM

**Q.** For `CCOC(=O)C1Cc2nc(-c3ccc(F)c(C(F)(F)F)c3)n(-c3ccnc(N[C@H]4CCN(C(=O)C5CC5)C4)n3)c2C1` (stereo not given in full), which IC50 [3] is on record?
**A.** 453 nM

**Q.** Which IC50 [3] does the source give for `NC(=O)C1Cc2nc(-c3ccc(Cl)c(Cl)c3)n(-c3ccnc(N[C@H]4CCN(C(=O)C5CC5)C4)n3)c2C1` (stereo not given in full) here?
**A.** 15.4 nM

**Q.** Which viability at 10 µM (Cortical neurone) does the source give for `NC(=O)C1Cc2nc(-c3ccc4c(c3)CCO4)n(-c3ccnc(N[C@H]4CCCN(C(=O)C5CC5)C4)n3)c2C1` (stereo not given in full) here?
**A.** 53%

**Q.** What about the IC50 [3] of the same compound?
**A.** 9.06 nM

**Q.** For `NC(=O)C1Cc2nc(-c3ccc4c(c3)CCO4)n(-c3ccnc(N[C@@H]4CCN(C(=O)C5CC5)C4)n3)c2C1` (stereo not given in full), which IC50 [3] is on record?
**A.** 63 nM

**Q.** Which IC50 [1] does the source give for `CNC(=O)C1Cc2nc(-c3ccc4ccccc4c3)n(-c3ccnc(N[C@@H]4CCCN(C(=O)C5CC5)C4)n3)c2C1` (stereo not given in full) here?
**A.** 75.5 nM

**Q.** What about the IC50 [2] of the same compound?
**A.** 1660 nM

**Q.** What about the Ratio IC50 [10] of the same compound?
**A.** 50

**Q.** What about the IC50 [3] of the same compound?
**A.** 1.08 nM

**Q.** And the IC50 [4]?
**A.** 16.3 nM

**Q.** And the IC50 [5]?
**A.** 37.5 nM

**Q.** Which IC50 [3] does the source give for `NC(=O)C1Cc2nc(-c3ccc4ccccc4c3)n(-c3ccnc(N[C@@H]4CCCN(C(=O)C5CC5)C4)n3)c2C1` (stereo not given in full) here?
**A.** 1.72 nM

**Q.** Which IC50 [3] does the source give for `CCOC(=O)C1Cc2nc(-c3ccc4c(c3)CCO4)n(-c3ccnc(N[C@H]4CCCN(C(=O)C5CC5)C4)n3)c2C1` (stereo not given in full) here?
**A.** 31.4 nM

**Q.** For `NC(=O)C1Cc2nc(-c3ccc4c(c3)OCO4)n(-c3ccnc(N[C@@H]4CCCN(C(=O)C5CC5)C4)n3)c2C1` (stereo not given in full), which IC50 [3] is on record?
**A.** 36.1 nM

**Q.** Which IC50 [3] does the source give for `CNC(=O)C1Cc2nc(-c3ccc(F)c(C(F)(F)F)c3)n(-c3ccnc(N[C@@H]4CCCN(C(=O)C5CC5)C4)n3)c2C1` (stereo not given in full) here?
**A.** 700 nM

**Q.** Which IC50 [3] does the source give for `CNC(=O)C1Cc2nc(-c3ccc4c(c3)OCO4)n(-c3ccnc(N[C@H]4CCN(C(=O)C5CC5)C4)n3)c2C1` (stereo not given in full) here?
**A.** 180 nM

**Q.** With `NC(=O)C1Cc2nc(-c3ccc4ccccc4c3)n(-c3ccnc(N[C@@H]4CCN(C(=O)C5CC5)C4)n3)c2C1` (stereo not given in full) as the compound, how does the IC50 [3] read?
**A.** 24.9 nM

**Q.** Which IC50 [3] does the source give for `CCOC(=O)C1Cc2nc(-c3ccc4c(c3)OCO4)n(-c3ccnc(N[C@@H]4CCN(C(=O)C5CC5)C4)n3)c2C1` (stereo not given in full) here?
**A.** 49.9 nM

**Q.** Which IC50 [1] does the source give for `CCOC(=O)C1Cc2nc(-c3ccc4ccccc4c3)n(-c3ccnc(N[C@H]4CCCN(C(=O)C5CC5)C4)n3)c2C1` (stereo not given in full) here?
**A.** 32.5 nM

**Q.** What about the viability at 10 µM (Cortical neurone) of the same compound?
**A.** 55.7%

**Q.** What about the IC50 [2] of the same compound?
**A.** 2250 nM

**Q.** What about the inhibition [11] of the same compound?
**A.** Active

**Q.** What about the IC50 [3] of the same compound?
**A.** 0.716 nM

**Q.** What about the inhibition [12] of the same compound?
**A.** Active

**Q.** And the IC50 [4]?
**A.** 13 nM

**Q.** What about the IC50 [5] of the same compound?
**A.** 291 nM
